According to ChEMBL document CHEMBL3097987, “Pyrrolizines: Promising scaffolds for anticancer drugs” (Bioorg Med Chem, 2014):

How the values were obtained:
HT-1080 = experiment: Ratio of cisplatin IC50 to compound IC50 for human HT1080 cells; type: functional
Bel-7402 = experiment: Ratio of cisplatin IC50 to compound IC50 for human Bel7402 cells; type: functional
[1] = Antitumor activity against human Bel7402 cells by MTT assay; type: functional, cell-based; settings: Bel-7402
[2] = Antitumor activity against human HT1080 cells by MTT assay; type: functional, cell-based; settings: HT-1080
[3] = Cytotoxicity against mouse LLC cells assessed as tumor growth inhibition relative to control; type: functional, Lewis lung carcinoma
B16 = experiment: Cytotoxicity against mouse B16 cells assessed as tumor growth inhibition relative to control; type: functional
Jensen sarcoma = experiment: Growth inhibition of rat Jensen sarcoma relative to control; type: functional
[4] = Growth inhibition of mouse mammary carcinoma 755 cells relative to control; type: functional
MDA-MB-231 [5] = experiment: Cytotoxicity against human MDA-MB-231 cells relative to 5-flurouracil; type: functional
MCF7 [6] = experiment: Cytotoxicity against human MCF7 cells relative to 5-flurouracil; type: functional
MDA-MB-231 [7] = experiment: Cytotoxicity against human MDA-MB-231 cells relative to licofelone; type: functional
MCF7 [8] = experiment: Cytotoxicity against human MCF7 cells relative to licofelone; type: functional
HT-29 = experiment: Cytotoxicity against human HT-29 cells relative to licofelone; type: functional
Tubulin = experiment: Inhibition of tubulin (unknown origin) polymerization; type: protein-complex assay, Homo sapiens
[9] = molecular target: Peptidyl-prolyl cis-trans isomerase NIMA-interacting 1 (Homo sapiens, UniProt Q13526); experiment: Inhibition of Pin-1 (unknown origin) using Suc-Ala-Glu-Pro-Phe-pNA as substrate preincubated for 300 seconds followed by substrate addition by UV/Vis spectrophotometric analysis
Peptidyl-prolyl cis-trans isomerase NIMA-interacting 1, sequence (Q13526 whole entry): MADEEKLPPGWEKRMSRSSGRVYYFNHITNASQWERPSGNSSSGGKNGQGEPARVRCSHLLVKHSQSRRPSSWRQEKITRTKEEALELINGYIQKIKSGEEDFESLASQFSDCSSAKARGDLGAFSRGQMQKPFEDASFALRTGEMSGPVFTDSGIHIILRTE

[10] = Cytotoxicity against mouse mammary carcinoma 755 cells assessed as tumor growth inhibition relative to control; type: functional
Aromatase = molecular target: T1, Aromatase (Homo sapiens, UniProt P11511); experiment: Inhibition of aromatase (unknown origin)
T1 sequence (P11511 whole entry): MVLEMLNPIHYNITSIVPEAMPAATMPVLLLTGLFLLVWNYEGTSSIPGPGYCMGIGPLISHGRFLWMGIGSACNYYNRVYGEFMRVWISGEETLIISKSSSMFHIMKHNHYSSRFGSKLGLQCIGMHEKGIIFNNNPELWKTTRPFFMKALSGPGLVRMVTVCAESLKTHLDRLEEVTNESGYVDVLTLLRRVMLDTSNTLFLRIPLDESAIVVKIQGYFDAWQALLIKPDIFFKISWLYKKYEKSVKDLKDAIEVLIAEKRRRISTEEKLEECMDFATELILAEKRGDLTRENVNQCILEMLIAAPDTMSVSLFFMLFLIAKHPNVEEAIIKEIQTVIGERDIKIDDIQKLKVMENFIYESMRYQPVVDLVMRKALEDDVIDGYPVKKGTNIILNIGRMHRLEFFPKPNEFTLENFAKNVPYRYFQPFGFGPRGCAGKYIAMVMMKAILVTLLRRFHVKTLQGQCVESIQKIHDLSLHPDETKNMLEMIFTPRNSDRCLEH

With `CSc1sc2c(c1-c1ccc([N+](=O)[O-])cc1)-n1cccc1/C2=N\OCOCCN1CCN(C)CC1` the “Ratio IC50” value (HT-1080) was 3.3, the “Ratio IC50” value (Bel-7402) was 2.5 and the IC50 [1] was 18.2 µM. The IC50 [2] was 8.2 µM.
Work on `CCOC(=O)c1c2n(c3c(SCc4ccccc4)ncnc13)CCC2` yielded a TGI [3] of 43% and a TGI (B16) of 40%.
With `CN(C)/C=N/C(=O)c1c2n(c3c(-c4ccccc4)ncnc13)CCC2` the growth inhibition (GI) (Jensen sarcoma) was 78% and the “growth inhibition (GI)” value [4] was 78%.
With `CC1(C)Cc2c(-c3ccccc3)c(-c3ccc(Cl)cc3)c(C(=O)Cn3cncn3)n2C1` the “fold change (FC)” value (MDA-MB-231 [5]) was 2, the “fold change (FC)” value (MCF7 [6]) was 2 and the “fold change (FC)” value (MDA-MB-231 [7]) was 2. For the same compound, the “fold change (FC)” value (MCF7 [8]) was 2 and the “fold change (FC)” value (HT-29) was 2.
Work on `COc1ccc(-c2csc3c2-n2cccc2C3=O)cc1O` yielded an IC50 (Tubulin) of 2.9 µM.
With `NC(=O)c1c2n(c3c(-c4ccccc4)ncnc13)CCC2` the “growth inhibition (GI)” value (Jensen sarcoma) was 73% and the growth inhibition (GI) [4] was 73%.
`O=C(NCc1ccccc1)C1C(COP(=O)(O)O)C2CCCN2C1c1ccccc1` (racemic) gave a Ki [9] of 44 µM.
For `O=C(NCc1ccc2c(c1)OCO2)C1C(COP(=O)(O)O)C2CCCN2C1c1ccc2ccccc2c1` (racemic), the Ki [9] was 32 µM.
Work on `CO[C@@H]1C[C@@H]2[C@@H](COP(=O)(O)O)[C@@H](C(=O)NCc3ccccc3)[C@@H](c3ccc4ccccc4c3)N2C1` yielded a Ki [9] of 9 µM.
Compound `O=C(NCc1ccccc1)C1C(COP(=O)(O)O)C2CCCN2C1c1ccc2ccccc2c1` (racemic) has a Ki [9] of 15 µM.
Work on `CCOC(=O)Sc1ncnc2c(C(=O)OCC)c3n(c12)CCC3` yielded a TGI [10] of 34% and a TGI (B16) of 40%.
With `O=C1/C(=C\c2ccncc2)C(c2ccccc2)n2cccc21` (configuration not stated) the IC50 (Aromatase) was 0.65 µM.
With `COc1cc([C@@H]2c3cc4c(cc3C[C@H]3COC(=O)[C@@H]32)OCO4)cc(OC)c1OC` [DESOXYPODOPHYLLOTOXIN] the IC50 (Tubulin) was 2.4 µM.
For `CCOC(=O)c1c2n(c3c(SC)ncnc13)CCC2`, the TGI (B16) was 40%.
Compound `O=C1/C(=C\c2cccnc2)C(c2ccccc2)n2cccc21` (configuration not stated) has an IC50 (Aromatase) of 3 µM.
`O=C(NCc1ccccc1)C1C(COP(=O)(O)O)C2CCCN2C1c1c(F)c(F)c(F)c(F)c1F` (racemic) gave a Ki [9] of 16 µM.
